# Measurements published in patent publication US20110129423A1, “ANTICANCER COMPOUNDS AND SCREENING METHOD” (priority 2009, published 2011).
# Several values for one entry are separate records, joined by “and”; a condition that tells them apart may be missing. Identical values can stand only once.
# How the values were obtained:
# ACTH, LH, and FSH = test: Peptide hormone assays (ELISA) in rat plasma; assay type: in vivo; settings: rats, 100 mg/kg daily for 14 days
# Description: Peptide Hormone Assays. ELISA kits for the quantification of ACTH, LH, and FSH in rat plasma were obtained from USCN Life, Wuhan, China. All other reagents were obtained from Sigma Chemical Co, St. Louis, Mo. ELISA results were measured on an ELx800 plate reader (Bio-Tek, Winooski, Vt.). Samples were assayed for ACTH, LH, and FSH concentration by means of an ELISA assay kit according to the manufacturer's instructions. For the rat samples, although 100 μL of undiluted plasma were required for each assay, […], 100 μL (LH), or 30 μL (FSH) were used in order to obtain results in the quantifiable range of the assay. Samples from Day 14 were assayed in duplicate; samples from Day 0 and Day 7 were assayed singly due to the small sample volume available. Concentrations were calculated from an eight-point standard curve. Thirty-five μL of dog plasma was used for the LH assay.
# The compound 17α-ethynylandrostane-3α,17β-diol (100 mg/kg) was administered to rats (n=5) daily for 14 days. The compound was a 20 mg/mL solution made of […] 2-hydroxypropyl-β-cyclodextrin in water. Vehicle lacking the compound was administered to control animals (n=5). By day 7 in the dosing period, systemic (serum) levels of testosterone, estradiol, estrone and DHEA had fallen by over 99% to essentially undetectable levels in the treated animals. Changes in LH, FSH and ACTH were not observed.
# [1] = Toxicity observation in the 28-day dog study; assay type: in vivo; settings: dogs, 20, 60 or 200 mg/kg oral daily for 28 days
# Description: (§1) Effects of the test compound 17α-ethynylandrostane-3α,17β-[…] on steroidogenesis in dogs in vivo. Samples were collected from male dogs (5/group) treated with 0, 20, 60 or 200 mg/kg of 17α-ethynylandrostane-3α,17β-diol before dosing on days 1, 14, and 28. The animals were dosed daily for 28 days. The samples were analyzed for testosterone (T), androstendione (A4), and dehydroepiandrosterone (DHEA). Day 1 and day 28 vehicle and 60 mg/kg samples were assayed for luteinizing hormone. The compound was administered by oral administration of a 20 mg/mL 17α-ethynylandrostane-3α,17β-diol solution made of 40% 2-hydroxypropyl-β-cyclodextrin in water.
# steroidogenesis in dogs = test: Effects on steroidogenesis in dogs in vivo (plasma T, A4, DHEA by LC-MS/MS); design: species or system dog; settings: for Testosterone Concentrations: male dogs
# Description: as §1
# (§2) T, A4 and DHEA assay. Plasma samples were processed by liquid/liquid extraction using MTBE (methyl-t-butyl ether). The organic portions containing the free steroids were evaporated and the dried extracts were incubated at 60° C. with a hydroxylamine hydrochloride solution. The resulting steroid-oxime derivatives were extracted with MTBE. The organic portions containing the steroid-oxime derivatives were evaporated to dryness, reconstituted in 80/20 water/acetonitrile, and analyzed on a Waters Xbridge™ Phenyl column by reversed-phase high-performance liquid chromatography (Agilent, Palo Alto, Calif. and Leap Technologies, Carrboro, N.C.) coupled with a tandem quadrupole mass spectrometer (Waters, Beverly, Mass.). Calibration curves prepared in water and QC samples prepared in native plasma for T (4-androstene-3-one-17β-ol), A4 (4-androstene-3,17-dione), and DHEA were analyzed in parallel with the samples. Sample responses were acquired and concentrations were determined based on the calibration curve using Masslynx™ analysis software (Waters, Beverly, Mass.). Determination of QC statistics was performed by subtracting the endogenous concentration determined in native plasma from the total concentration found in the QC sample.
# The quantifiable range of detection for T was 10.0 to 20000.0 pg/mL in rat (example 3) and dog (this example) samples. The quantifiable range of detection for A4 was 10.0 to 20000.0 pg/mL in rats and 20.0 to 20000.0 pg/mL in dogs. The quantifiable range of detection for DHEA was 50.0 to 200.0 pg/mL in both species. Values below the detection limit were identified as such.
# [2] = tested on: systemic (serum) levels of testosterone, estradiol, estrone and DHEA; test: Systemic steroid hormone levels in rats dosed daily for 14 days; assay type: in vivo, rat; settings: 100 mg/kg daily, by day 7
# Description: Plasma samples were processed by liquid/liquid extraction using MTBE. The organic portions containing the analytes were evaporated and dried extracts were incubated at 60° C. with a dansyl chloride solution. The resulting steroid derivatives were analyzed on a Waters Xbridge™ Phenyl column by reversed-phase high-performance liquid chromatography (Agilent, Palo Alto, Calif. and Leap Technologies, Carrboro, N.C.) coupled with a tandem quadrupole mass spectrometer (Waters, Beverly, Mass.). Calibration curves for standards and QC samples for […] (Estradiol, E2) and Estrone (E1) were analyzed in parallel with the samples. Sample responses were acquired and concentrations were determined based on the calibration using Masslynx™ analysis software (Waters, Beverly, Mass.). Determination of QC statistics was performed by subtracting the endogenous concentration determined in native plasma from the total concentration found in the QC sample. No PK calculations were performed on this study. The quantifiable range of detection for E2 was 5.0 to 200.0 pg/mL. The quantifiable range of detection for E1 was 10.0 to 200.0 pg/mL. Values below the detection limit were identified as such and reported.
# as §2
# The quantifiable range of detection for T was 10.0 to 20000.0 pg/mL in rat (example 3) and dog (this example) samples. The quantifiable range of detection for A4 was 10.0 to 20000.0 pg/mL in rats and 20.0 to 20000.0 pg/mL in dogs. The quantifiable range of detection for DHEA was 50.0 to 200.0 pg/mL in both species. […]
# [3] = dogs, end of 28 days of daily oral dosing, dose group not specified
smiles,measurement,setting,value
"C#C[C@]1(O)CC[C@H]2[C@@H]3CCC4C[C@H](O)CC[C@]4(C)[C@H]3CC[C@@]21C (stereo partly drawn) [17α-ethynylandrostane-3α,17β-diol]",changes in ACTH,"ACTH, LH, and FSH",not observed
same,changes in FSH,"ACTH, LH, and FSH",not observed
same,changes in LH,"ACTH, LH, and FSH",not observed
same,toxicity in the animals,[1],Significant toxicity was not observed
same,decrease of A4 (androstendione) level compared to vehicle control,steroidogenesis in dogs; [3],about 99%
same,decrease of DHEA level,steroidogenesis in dogs; [3],about 90%
same,decrease of T (testosterone) level compared to vehicle control,steroidogenesis in dogs; [3],about 99%
same,Testosterone Concentrations,"steroidogenesis in dogs; 20 mg/kg oral daily, day 1 sample before dosing (baseline), individual animals A111M-A115M, 20 mg/kg",1747.2 pg/mL and 1677.0 pg/mL and 668.6 pg/mL and 771.4 pg/mL and 2450.6 pg/mL
same,Testosterone Concentrations,"steroidogenesis in dogs; 20 mg/kg oral daily, day 14, individual animals A111M-A115M, 20 mg/kg",67.8 pg/mL and 51.1 pg/mL and 344.9 pg/mL and 90.1 pg/mL and 94.4 pg/mL
same,Testosterone Concentrations,"steroidogenesis in dogs; 20 mg/kg oral daily, day 28, individual animals A111M-A115M, BQL = below the limit of quantitation (lower limit 10.0 pg/mL), 20 mg/kg",19.3 pg/mL and 60.8 pg/mL and 143.8 pg/mL and 173.0 pg/mL and BQL
same,Testosterone Concentrations,"steroidogenesis in dogs; 60 mg/kg oral daily, day 1 sample before dosing (baseline), individual animals A121M-A125M, 60 mg/kg",46.9 pg/mL and 711.2 pg/mL and 723.8 pg/mL and 1371.3 pg/mL and 1659.6 pg/mL
same,Testosterone Concentrations,"steroidogenesis in dogs; 60 mg/kg oral daily, day 14, individual animals A121M-A125M, 60 mg/kg",173.7 pg/mL and 38.5 pg/mL and 110.4 pg/mL and 144.1 pg/mL and 338.0 pg/mL
same,Testosterone Concentrations,"steroidogenesis in dogs; 60 mg/kg oral daily, day 28, individual animals A121M-A125M, BQL = below the limit of quantitation (lower limit 10.0 pg/mL), 60 mg/kg",18.9 pg/mL and BQL (4×)
same,Testosterone Concentrations,"steroidogenesis in dogs; 200 mg/kg oral daily, day 1 sample before dosing (baseline), individual animals A131M-A135M, 200 mg/kg",503.3 pg/mL and 350.3 pg/mL and 1816.6 pg/mL and 1891.0 pg/mL
same,Testosterone Concentrations,"steroidogenesis in dogs; 200 mg/kg oral daily, day 14, individual animals A131M-A135M, BQL = below the limit of quantitation (lower limit 10.0 pg/mL), 200 mg/kg",BQL (2×) and 119.5 pg/mL and 236.6 pg/mL and 18.1 pg/mL
same,Testosterone Concentrations,"steroidogenesis in dogs; 200 mg/kg oral daily, day 28, individual animals A131M-A135M, BQL = below the limit of quantitation (lower limit 10.0 pg/mL), 200 mg/kg",BQL (2×) and 11.2 pg/mL and 10.2 pg/mL
same,fall of systemic (serum) level of DHEA,[2],over 99%
same,fall of systemic (serum) level of estradiol,[2],over 99%
same,fall of systemic (serum) level of estrone,[2],over 99%
same,fall of systemic (serum) level of testosterone,[2],over 99%
